Laboratory results published in patent US6585991B1, “Termite bait matrix” (The United States of America as represented by the …, priority 1999, dated 2003).

How the values were obtained:
[1] = test system: termite workers and soldiers; assay: Non-choice tests of antibiotics and a fungus inhibitor in bait matrix; format: in vivo; conditions: 100 ppm in bait matrix; after three weeks of exposure
Procedure: Non-choice tests using five different antibiotics (streptomycin sulfate, rifampicin, albendazole, neomycin sulfate, and antimycotic) and a fungus inhibitor (sorbic acid) were conducted at four different concentrations (100, 250, 500, and 1000 ppm). Individual chemicals were mixed with the bait matrix of Example 3 at each concentration and 10 g samples of each were transferred to sterile plastic Petri dishes and exposed to groups of 20 termite workers and two soldiers. Five repetitions per treatment were done. The dishes were kept in a Percival incubator under dark conditions at 27±1° C. and 80% relative humidity. A control containing no antibiotic or fungus inhibitor was prepared and kept under the same conditions as the treatments. Time required to reach 100% mortality was recorded.

[2] = test system: termite; conditions: 125 ppm hexaflumuron in a matrix composed of spruce sawdust; cited from earlier work
[3] = test system: Formosan subterranean termite colony; assay: Pair choice test, yellow pine versus bait matrix mixed with hexaflumuron; format: in vivo, Coptotermes formosanus; conditions: 50 ppm hexaflumuron in bait matrix; period of 10 weeks; colony of 1500
Procedure: To determine the acceptance by the Formosan subterranean termite of the bait matrix of Example 3 with toxic chemicals added, a pair choice test between a 25 g piece of yellow pine and an equivalent amount of bait matrix mixed with 50-ppm hexaflumuron was performed. Both pine and bait matrix were exposed to a Formosan termite colony composed of 1500 soldiers, workers, and nymphs, housed in a plastic Sterilite container containing 2L topsoil:sand (1:1) at 40% relative humidity. The treatment box was maintained under dark conditions at 26±3° C. A control, 12″ yellow pine wood stakes without hexaflumuron, was prepared and kept at the same conditions as the treatment.

Compound	Mortality [1]	Mortality compared with 50 ppm in bait matrix (100% in 10 weeks) [2]	Mortality [3]
CCCSc1ccc2nc(NC(=O)OC)[nH]c2c1 [albendazole]	40%	–	–
O=C(NC(=O)c1c(F)cccc1F)Nc1cc(Cl)c(OC(F)(F)C(F)F)c(Cl)c1 [hexaflumuron]	–	equivalent	100%
neomycin sulfate	40%	–	–
C/C=C/C=C/C(=O)O [sorbic acid]	33%	–	–
